# According to PubChem BioAssay (NCI):
# Values joined by “and” are separate entries in the source; they are usually repeats but may differ in a detail not shown here. Equal values may be shown once.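 Five compound concentrations were applied to cells in 96-well plates for 48 hours; endpoints were derived by simple linear interpolation of the resulting dose-response curve. Abbreviation: GI50, concentration required for 50% inhibition of growth. TGI is the concentration that stops growth completely.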
# Tests used:
# Test in all cases: NCI anticancer screen, dose series, 48 h
# SF-295 CNS = test system: SF-295 CNS
# SK-MEL-5 melanoma = test system: SK-MEL-5 melanoma
# 786-0 renal = test system: 786-0 renal
# SN12C renal = test system: SN12C renal
# M14 melanoma = test system: M14 melanoma
# UACC-62 melanoma = test system: UACC-62 melanoma
# SF-539 CNS = test system: SF-539 CNS
# SR leukemia = test system: SR leukemia
# HS 578T breast = test system: HS 578T breast
# MCF7 breast = test system: MCF7 breast
Compound,TGI (SF-295 CNS),TGI (SK-MEL-5 melanoma),TGI (786-0 renal),TGI (SN12C renal),TGI (M14 melanoma),TGI (UACC-62 melanoma),TGI (SF-539 CNS),TGI (SR leukemia),GI50 (SF-295 CNS),GI50 (SK-MEL-5 melanoma),GI50 (786-0 renal),GI50 (HS 578T breast),TGI (HS 578T breast),GI50 (SN12C renal),GI50 (M14 melanoma),GI50 (UACC-62 melanoma),GI50 (SF-539 CNS),GI50 (SR leukemia),GI50 (MCF7 breast),TGI (MCF7 breast)
OC1CC(O)O[C@H](c2ccccc2)C1 (some centres not stated),> 100 µM,> 100 µM,> 100 µM,> 100 µM,> 100 µM,> 100 µM,> 100 µM,> 100 µM,,,,,,,,,,,,
CC(=O)Oc1ccc2c(=O)c(C(C)=O)coc2c1,> 100 µM,> 100 µM,> 100 µM,,> 100 µM,,> 100 µM,> 100 µM,,,,,,,,,,,,
Cc1nc2ccc(-n3ncc(C(=O)c4cc5ccccc5[nH]4)c3N)cc2[nH]1,44.8 µM,18.4 µM,69.4 µM,> 100 µM,63.4 µM,24.9 µM,10.9 µM,31.2 µM,4.87 µM,5.46 µM,9.44 µM,10.5 µM,> 100 µM,12.7 µM,12.2 µM,4.24 µM,1.17 µM,2.82 µM,4.52 µM,> 100 µM
CC(C)C[C@H](NC(=O)[C@@H](Cc1ccccc1)n1ccc(Nc2ccccc2)cc1=O)B(O)O,1.22 µM,1.14 µM,59 µM,6.94 µM,1.91 µM,1.41 µM,0.484 µM,2.02 µM,0.285 µM,0.321 µM,0.582 µM,0.361 µM,7.06 µM,0.73 µM,0.278 µM,0.333 µM,0.174 µM,0.0955 µM,0.374 µM,14.6 µM
O=C(c1ccccc1)n1cc(/C=C/[N+](=O)[O-])c2ccccc21,> 100 µM,> 100 µM,39 µM,> 100 µM,41 µM,36.9 µM,46.4 µM,44.9 µM,,,,,,,,,,,,
O=C(O)CN1C(=O)OC(c2ccccc2)C1=O (configuration not stated),> 100 µM,> 100 µM,> 100 µM,> 100 µM,> 100 µM,> 100 µM,> 100 µM,> 100 µM,,,,,> 100 µM,,,,,,,> 100 µM
CCN1C(=O)/C(=c2\sc3n(c2=O)C2C(NN=3)N(CC)C(=O)N2CC)c2ccccc21 (configuration not stated),6.64 µM,7.44 µM,16.9 µM,> 100 µM,21.7 µM,30 µM,0.937 µM,> 100 µM,0.377 µM,0.463 µM,0.663 µM,0.341 µM,31.6 µM,0.615 µM,0.347 µM,0.426 µM,0.271 µM,0.357 µM,0.357 µM,> 100 µM
CCN(N=O)C1C2(CCCC2)NC(=O)C12CCCC2 (configuration not stated),> 100 µM,,> 100 µM,> 100 µM,> 100 µM,> 100 µM,> 100 µM,> 100 µM,,,,,,,,,,,,
COc1ccc2c(c1)OCC1c3cc(OC)c4ccccc4c3OC21 (configuration not stated),6.91 µM,24.2 µM,> 100 µM,77.4 µM,> 100 µM,18.9 µM,> 100 µM,16.6 µM,2 µM,5.11 µM,26.1 µM,11.3 µM,37 µM,17.1 µM,7.23 µM,3.05 µM,21.3 µM,3.89 µM,3.59 µM,> 100 µM
Nc1c(C(=O)Nc2cccc(Cl)c2)sc2nc3c(cc12)C(O)CCC3 (configuration not stated),16.3 µM,18.3 µM,20.4 µM,> 100 µM,> 49.7 µM,58.8 µM,0.965 µM,28.6 µM,0.314 µM,0.375 µM,0.66 µM,1.62 µM,> 74 µM,0.773 µM,0.367 µM,0.463 µM,0.275 µM,0.258 µM,0.344 µM,53.4 µM
COc1cccc(C(=O)NNc2nc(Cl)nc(N3CCN(C(c4ccccc4)c4ccccc4)CC3)n2)c1,30.4 µM,29.7 µM,13.1 µM,3.47 µM,3.53 µM,5.85 µM,4.3 µM,4.26 µM,16.8 µM,15.9 µM,3.4 µM,1.95 µM,4.9 µM,1.8 µM,1.7 µM,2.3 µM,2.08 µM,0.852 µM,82.2 µM,> 100 µM
CC1(C)N=C(N)N=C(N)N1c1ccc(OCC(=O)Nc2ccc(S(=O)(=O)F)cc2Cl)c(Cl)c1,> 100 µM,> 100 µM,> 100 µM,> 100 µM,> 100 µM,> 100 µM,> 100 µM,> 100 µM,5.23 µM,1.15 µM,3.13 µM,,,4.41 µM,5.01 µM,1.16 µM,4.77 µM,0.82 µM,2.24 µM,> 100 µM
COC(=O)C1C(C(=O)O)C2(c3ccccc3)C(=O)C1(c1ccccc1)C(c1ccc(OC)cc1)=C2c1ccc(OC)cc1 (configuration not stated),77.2 µM,32.4 µM,40.4 µM,49 µM,34.8 µM,35.2 µM,34 µM,63 µM,30.3 µM,16.8 µM,18.6 µM,22.1 µM,72.3 µM,20.5 µM,18.6 µM,18.8 µM,17.7 µM,27.2 µM,20.3 µM,38.9 µM
O=C(CCN1CCCCC1)c1csc2ccccc12,> 100 µM,> 100 µM,> 100 µM,> 100 µM,> 100 µM,> 100 µM,> 100 µM,> 100 µM,,,,,> 100 µM,,,,,,,48.1 µM
CN1C(=O)C(N=Nc2ccc([N+](=O)[O-])cc2)SC1=S (configuration not stated),6.27 µM and 24.9 µM,28.9 µM and 27 µM,80 µM and 58.2 µM,> 100 µM and 75.9 µM,> 100 µM,> 100 µM,58.1 µM and 70.4 µM,> 100 µM,1.62 µM and 3.04 µM,7.77 µM and 11.1 µM,8.12 µM and 10.7 µM,2.47 µM and 16.2 µM,22.5 µM and > 100 µM,4.39 µM and 9.34 µM,7.61 µM and 19.2 µM,3.29 µM and 2.85 µM,6.57 µM and 7.08 µM,2.66 µM and 4.47 µM,6.1 µM and 16.6 µM,> 100 µM
